In US4882326A, “Piperidine compounds and pharmaceutical uses thereof” (Yoshitomi Pharmaceutical Industries, Ltd., priority 1987, dated 1989):

Columns and labels:
[1] = molecular target: T1, angiotensin I converting enzyme (Cavia porcellus, UniProt H0UWL7); assay: Inhibitory effect on angiotensin I-induced constriction in isolated guinea pig ileum (indirect inhibition of angiotensin I converting enzyme); assay type: cell-based; conditions: angiotensin I 10^-8 M, 37° C.
T1 construct: isolated guinea pig ileum preparation; from tissue; host or cells: isolated guinea pig ileum
T1 sequence (H0UWL7 33-1302): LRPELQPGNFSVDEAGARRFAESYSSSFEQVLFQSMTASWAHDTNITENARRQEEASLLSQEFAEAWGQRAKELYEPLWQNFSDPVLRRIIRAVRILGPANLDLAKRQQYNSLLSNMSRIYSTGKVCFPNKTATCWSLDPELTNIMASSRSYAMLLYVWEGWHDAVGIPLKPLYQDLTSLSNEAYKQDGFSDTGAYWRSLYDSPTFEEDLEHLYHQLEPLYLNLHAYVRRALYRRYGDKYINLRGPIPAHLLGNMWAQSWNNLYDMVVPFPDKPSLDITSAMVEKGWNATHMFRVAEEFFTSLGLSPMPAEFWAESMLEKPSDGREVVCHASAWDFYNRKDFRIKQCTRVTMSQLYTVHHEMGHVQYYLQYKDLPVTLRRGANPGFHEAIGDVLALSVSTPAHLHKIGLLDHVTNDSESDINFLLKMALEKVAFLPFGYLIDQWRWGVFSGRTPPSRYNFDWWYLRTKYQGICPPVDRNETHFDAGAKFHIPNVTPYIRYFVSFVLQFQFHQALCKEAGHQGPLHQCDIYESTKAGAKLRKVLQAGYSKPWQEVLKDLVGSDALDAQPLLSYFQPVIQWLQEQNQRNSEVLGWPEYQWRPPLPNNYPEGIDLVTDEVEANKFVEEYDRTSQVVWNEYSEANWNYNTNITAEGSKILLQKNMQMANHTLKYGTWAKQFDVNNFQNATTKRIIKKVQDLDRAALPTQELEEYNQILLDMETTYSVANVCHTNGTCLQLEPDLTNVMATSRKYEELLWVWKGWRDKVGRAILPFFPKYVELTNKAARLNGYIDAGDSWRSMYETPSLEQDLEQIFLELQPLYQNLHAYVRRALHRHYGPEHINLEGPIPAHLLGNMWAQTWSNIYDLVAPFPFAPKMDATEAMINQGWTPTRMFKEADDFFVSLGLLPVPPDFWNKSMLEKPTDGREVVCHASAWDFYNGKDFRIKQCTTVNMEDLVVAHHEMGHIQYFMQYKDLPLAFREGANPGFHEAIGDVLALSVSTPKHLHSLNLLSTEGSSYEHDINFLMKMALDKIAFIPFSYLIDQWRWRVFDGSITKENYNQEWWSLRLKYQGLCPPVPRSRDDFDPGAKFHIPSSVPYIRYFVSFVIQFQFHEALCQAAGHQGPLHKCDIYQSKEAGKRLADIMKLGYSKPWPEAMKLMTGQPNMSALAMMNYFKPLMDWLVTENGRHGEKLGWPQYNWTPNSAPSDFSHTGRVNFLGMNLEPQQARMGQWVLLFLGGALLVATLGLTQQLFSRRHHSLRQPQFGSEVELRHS
Source text: Experiment 1: Inhibitory effect on angiotensin I-induced constriction in isolated guinea pig ileum
According to the method of Goldberg et al (J. Pharmacol. Exp. Ther., vol. 204, No. 2, p. 271, 1977), the inhibitory effect on angiotensin I converting enzyme was indirectly examined as an antagonistic activity on angiotensin I-induced constriction in isolated guinea pig ileum preparation. Guinea pig ileum preparations, in the presence of 1 g load, were suspended in Magnus bath filled with Kreb's solution containing atropine and maintained at 37° C. by warming, and then bubbled with a mixed gas (95%O2 +5%CO2). Angiotensin I (10^-8 M)-induced constrictions were measured with a recorder through a force displacement transducer (Nippon Denki San-ei, 45169A). Inhibitory rates of the test compounds were indicated on a graph and the rate of 50% inhibition (IC50) was calculated.

[2] = system: angiotensin I-induced pressor response; assay: Effect on angiotensin I-induced pressor response in rats; assay type: in vivo, Wistar male rats; conditions: 10 mg/kg, p.o.; for Inhibitory rate (%) of pressor response to angiotensin I at each hour: angiotensin I 300 ng/kg i.v., mean value±standard error
Description: Experiment 2: Effect on angiotensin I-induced pressor response in rats
Groups of 10 Wistar male rats weighing about 200 g were implanted with a catheter into the left carotid artery and femoral vein under ether anesthesia. More than 24 hours after operation, mean blood pressure was measured from the carotid artery with a pressure transducer (Nippon Denki San-ei, 142 type). Angiotensin I (300 ng/kg) was injected to the left femoral vein through catheter to induce pressor response. Then 10 mg/kg of the test compounds, suspended in 0.5% methylcellulose solution, were given orally. At every hour between 1 to 10 hours, and 24 hours after the administration, the pressor response was examined by the injection of angiotensin I. The inhibitory rate (%) against the pressor responses was determined and the results were summarized in Table 1. The values in the Table represent "mean value±standard error".

SMILES	IC50 [1] [nM]	Inhibitory rate (%) of pressor response to angiotensin I at each hour ([2]; 1 hour) [%]	Inhibitory rate (%) of pressor response to angiotensin I at each hour ([2]; 2 hours) [%]	Inhibitory rate (%) of pressor response to angiotensin I at each hour ([2]; 3 hours) [%]	Inhibitory rate (%) of pressor response to angiotensin I at each hour ([2]; 4 hours) [%]	Inhibitory rate (%) of pressor response to angiotensin I at each hour ([2]; 5 hours) [%]	Inhibitory rate (%) of pressor response to angiotensin I at each hour ([2]; 6 hours) [%]	Inhibitory rate (%) of pressor response to angiotensin I at each hour ([2]; 7 hours) [%]	Inhibitory rate (%) of pressor response to angiotensin I at each hour ([2]; 8 hours) [%]	Inhibitory rate (%) of pressor response to angiotensin I at each hour ([2]; 9 hours) [%]	Inhibitory rate (%) of pressor response to angiotensin I at each hour ([2]; 10 hours) [%]	Inhibitory rate (%) of pressor response to angiotensin I at each hour ([2]; 24 hours) [%]	inhibitory action against the angiotensin I-induced pressor response, strength and duration vs CV-5975 ([2]; rats, comparison in words)
O=C(O)CN1C(=O)[C@@H](N[C@@H](CCCCC2CCNCC2)C(=O)O)CSc2ccccc21 [CV-5975, 3(R)-[1(S)-carboxy-5-(4-piperidyl)pentyl]amino-4-oxo-2,3,4,5-tetrahydro-1,5-benzothiazepine-5-acetic acid, reference compound]	3.5	-95 ± 3	-95 ± 3	-89 ± 7	-85 ± 7	-82 ± 8	-89 ± 6	-86 ± 6	-80 ± 7	-84 ± 7	-75 ± 9	-45 ± 10	
O.O=C(O)CN1C(=O)C(N[C@@H](CSCCC2CCNCC2)C(=O)O)CCc2ccccc21 (stereo partly drawn) [Example 7, 3-[1(R)-carboxy-2-{2-(4-piperidyl)ethylthio}ethyl]amino-2-oxo-2,3,4,5-tetrahydro-1H-1-benzazepine-1-acetic acid monohydrate]	1.6	-96 ± 2	-100 ± 0	-94 ± 5	-97 ± 3	-100 ± 0	-100 ± 0	-100 ± 0	-98 ± 2	-100 ± 0	-90 ± 6	-77 ± 10	exhibits stronger inhibitory action against the angiotensin I-induced pressor response and more long-lasting effect than C-5975
